This note sets out measurements from publication PMC12458683, “Water-Based Pharmacophore Modeling in Kinase Inhibitor Design: A Case Study on Fyn and Lyn Protein Kinases” (Journal of Chemical Information and Modeling, 2025).

For one experiment, the target named is T1, Fyn (h) (Homo sapiens, UniProt P06241).
T1 construct: Eurofins KinaseProfiler enzyme
Description: radiometric kinase assay ([gamma-33P]-ATP, filter binding), 9-point dilution. It is filed as biochemical. An excerpt: radiometric kinase assay ([gamma-33P]-ATP, filter binding), 9-point dilution on Fyn (h)

The target in a further experiment is T2, Lyn (h) (Homo sapiens, UniProt P07948).
T2 construct: Eurofins KinaseProfiler enzyme
The experiment is described as above. It counts as biochemical. From the text:
radiometric kinase assay ([gamma-33P]-ATP, filter binding), 9-point dilution on Lyn (h)

T2 sequence (P07948 2-512): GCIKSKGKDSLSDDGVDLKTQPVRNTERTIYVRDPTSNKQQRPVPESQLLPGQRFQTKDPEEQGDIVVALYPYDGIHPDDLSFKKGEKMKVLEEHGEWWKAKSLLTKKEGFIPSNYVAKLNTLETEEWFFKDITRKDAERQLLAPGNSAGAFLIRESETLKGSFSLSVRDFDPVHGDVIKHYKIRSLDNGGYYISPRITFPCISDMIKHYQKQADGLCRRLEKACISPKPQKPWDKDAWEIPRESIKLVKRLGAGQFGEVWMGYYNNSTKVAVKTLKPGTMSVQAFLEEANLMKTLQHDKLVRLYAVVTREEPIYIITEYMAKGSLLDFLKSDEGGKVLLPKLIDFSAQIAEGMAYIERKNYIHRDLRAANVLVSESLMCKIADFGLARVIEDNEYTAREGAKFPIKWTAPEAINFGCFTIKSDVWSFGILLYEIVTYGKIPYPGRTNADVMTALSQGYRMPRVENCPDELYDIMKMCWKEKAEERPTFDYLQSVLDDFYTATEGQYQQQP
T1 sequence (P06241 2-537): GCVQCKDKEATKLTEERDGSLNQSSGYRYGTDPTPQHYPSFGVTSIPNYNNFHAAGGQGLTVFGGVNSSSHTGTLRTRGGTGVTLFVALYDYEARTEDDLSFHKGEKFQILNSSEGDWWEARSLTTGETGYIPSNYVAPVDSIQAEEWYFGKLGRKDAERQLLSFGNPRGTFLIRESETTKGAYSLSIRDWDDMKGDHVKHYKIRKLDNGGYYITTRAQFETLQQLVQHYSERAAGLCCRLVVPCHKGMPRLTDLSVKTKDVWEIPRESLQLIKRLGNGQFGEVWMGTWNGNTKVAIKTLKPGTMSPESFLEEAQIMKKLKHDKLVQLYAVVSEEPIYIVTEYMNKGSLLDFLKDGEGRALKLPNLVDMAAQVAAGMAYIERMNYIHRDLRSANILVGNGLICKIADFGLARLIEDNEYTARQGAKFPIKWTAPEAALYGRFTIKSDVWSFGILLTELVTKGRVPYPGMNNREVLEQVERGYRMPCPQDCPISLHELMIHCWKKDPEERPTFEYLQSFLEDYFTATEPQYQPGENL

On to `COc1cc(O)c2c(=O)c(-c3ccc(O[C@@H]4O[C@H](CO)[C@@H](O)[C@H](O)[C@H]4O)cc3)coc2c1` [compound 1], for which the IC50 at Fyn (h) came to 8.66 µM; at Lyn (h), 4.39 µM.
